The structures appear in SMILES notation. Some results are limits rather than exact numbers.

We go through 1 compound from patent US20080009548A1, “AMBROXOL FOR THE TREATMENT OF ACUTE PAIN” (priority 2003, published 2008).

The target in assay [1] is tetrodotoxin-resistant sodium channels (Rattus norvegicus, UniProt Q62968). It counts as cell-based. The following applies: neuron cultures from the posterior root ganglia of adult rats; read-out: half-maximal inhibition of tetrodotoxin-resistant sodium channels.
The target in a further assay is T1, human GluR1/2 receptors (Homo sapiens, UniProt P42261+P42262).
T1 construct: expressed in transfected cells; host or cells: HEK 293
As to the kind of experiment: Patch-Clamp measurement of glutamate-induced membrane currents in HEK 293 cells expressing GluR1/2 receptors. The assay is classed as cell-based. The following applies: HEK 293 cells expressing human GluR1/2; 1 mM glutamate for 1 s, holding potential −80 mV. As to the method: Ionotropic glutamate receptors of the AMPA sub-type are also essential for the excitatory neurotransmission. […] The blocking of AMPA receptors has been described as being helpful for the treatment of acute pain (e.g., ji Szekely et al. (1997), EJP 336, 143-154). HEK 293 cells which expressed functionally recombinant human GluR1/2 receptors were electrophysiologically investigated by the Patch-Clamp method ([…]). The administration of 1 mM glutamate (for 1 s at a holding potential of −80 mV) induced membrane currents which were inhibited by the joint administration of ambroxol.
A general note: In patch-clamp work, channel activity is measured electrically.

For assay [2], the system named is voltage-dependent calcium channels. The assay can be described thus: Patch-Clamp measurement of current through voltage-dependent calcium channels in posterior root ganglia neurons. The assay is classed as cell-based. To be noted: neuron cultures from adult rat posterior root ganglia; voltage jumps from −80 mV to 0 mV for 50 ms. The source says:
Voltage-dependent calcium channels play an important role in the transmission of pain-related excitation in the nervous system. The blocking of these channels has been described as being helpful for the treatment of acute pain (KA Sluka (1998), JPET 287, 232-237; J Devulder et al. (2001), J Pain Sympt Management 22, 622-626). […] Neurons were dissected from posterior root ganglia of adult rats and placed in short-term culture. The cells were investigated electrophysiologically by the Patch-Clamp method (voltage terminal), and the flow of current through voltage-dependent calcium channels was measured after electrical stimulation (voltage jumps from −80 mV to 0 mV holding potential for 50 ms) in the presence and absence of ambroxol.

The subject of assay [3] is Tetrodotoxin-sensitive currents. The assay is classed as cell-based, rat. The following applies: read-out: IC50 of tetrodotoxin-sensitive currents; neuron cultures from the posterior root ganglia of adult rats.

T1 sequence (P42261 19-906): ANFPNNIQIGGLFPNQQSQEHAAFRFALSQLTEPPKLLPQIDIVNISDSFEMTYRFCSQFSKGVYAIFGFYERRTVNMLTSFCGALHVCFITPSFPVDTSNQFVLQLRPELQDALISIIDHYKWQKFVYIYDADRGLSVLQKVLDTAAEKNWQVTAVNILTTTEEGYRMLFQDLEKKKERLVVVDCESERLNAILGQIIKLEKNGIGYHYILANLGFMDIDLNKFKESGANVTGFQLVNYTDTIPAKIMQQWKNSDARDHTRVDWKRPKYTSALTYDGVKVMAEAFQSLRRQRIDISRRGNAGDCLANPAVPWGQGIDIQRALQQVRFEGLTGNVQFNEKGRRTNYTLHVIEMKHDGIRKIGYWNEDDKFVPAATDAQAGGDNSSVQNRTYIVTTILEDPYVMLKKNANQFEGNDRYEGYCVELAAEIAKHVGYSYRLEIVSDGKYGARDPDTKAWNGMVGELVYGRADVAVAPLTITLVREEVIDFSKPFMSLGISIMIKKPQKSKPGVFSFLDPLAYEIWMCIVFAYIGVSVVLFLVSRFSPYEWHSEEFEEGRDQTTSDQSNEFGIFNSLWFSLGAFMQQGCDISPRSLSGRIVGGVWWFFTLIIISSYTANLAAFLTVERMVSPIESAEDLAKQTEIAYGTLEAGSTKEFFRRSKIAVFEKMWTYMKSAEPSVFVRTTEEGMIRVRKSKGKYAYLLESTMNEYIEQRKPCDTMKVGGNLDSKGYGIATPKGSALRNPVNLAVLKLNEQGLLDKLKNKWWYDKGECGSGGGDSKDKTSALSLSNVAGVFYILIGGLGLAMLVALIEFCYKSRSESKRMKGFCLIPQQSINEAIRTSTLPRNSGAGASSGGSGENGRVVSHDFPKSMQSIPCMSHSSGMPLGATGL
T1 sequence (P42262 22-883 limits assumed): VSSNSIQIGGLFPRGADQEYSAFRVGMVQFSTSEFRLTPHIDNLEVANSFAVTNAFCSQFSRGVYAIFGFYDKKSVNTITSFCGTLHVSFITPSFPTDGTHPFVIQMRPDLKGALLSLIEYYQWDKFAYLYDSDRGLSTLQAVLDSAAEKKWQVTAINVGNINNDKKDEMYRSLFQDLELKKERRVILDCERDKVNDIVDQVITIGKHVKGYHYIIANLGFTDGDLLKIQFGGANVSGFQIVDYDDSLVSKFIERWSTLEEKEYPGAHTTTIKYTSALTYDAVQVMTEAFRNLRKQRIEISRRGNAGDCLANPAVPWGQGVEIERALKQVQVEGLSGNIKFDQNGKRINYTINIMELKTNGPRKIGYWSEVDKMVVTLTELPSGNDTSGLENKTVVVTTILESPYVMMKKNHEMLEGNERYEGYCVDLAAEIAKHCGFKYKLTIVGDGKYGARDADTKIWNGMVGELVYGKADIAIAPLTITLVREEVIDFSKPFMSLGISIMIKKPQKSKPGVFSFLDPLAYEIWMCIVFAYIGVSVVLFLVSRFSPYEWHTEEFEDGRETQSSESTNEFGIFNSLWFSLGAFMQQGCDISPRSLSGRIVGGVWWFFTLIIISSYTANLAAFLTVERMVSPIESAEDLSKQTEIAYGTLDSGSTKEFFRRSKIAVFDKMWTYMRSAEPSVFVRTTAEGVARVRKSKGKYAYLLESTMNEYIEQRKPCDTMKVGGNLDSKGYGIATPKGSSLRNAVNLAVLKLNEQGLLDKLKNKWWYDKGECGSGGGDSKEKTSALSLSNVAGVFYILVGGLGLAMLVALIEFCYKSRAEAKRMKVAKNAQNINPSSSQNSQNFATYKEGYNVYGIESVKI

Consider `Nc1c(Br)cc(Br)cc1CN[C@H]1CC[C@H](O)CC1` [ambroxol, trans-4-(2-amino-3,5-dibromobenzylamino)cyclohexanol], for which the IC50 in assay [1] was 35 µM; in assay [3] it was above 100 µM. Also, the “concentrations that inhibit glutamate-induced membrane currents” value on human GluR1/2 receptors was 30 to 1000 µM. Moreover, the “concentrations that block voltage-dependent calcium channels” value in assay [2] was 10 to 1000 µM.
